Experiments:
aFGF = target: T1, aFGF (Homo sapiens, UniProt P05230); assay: Thermal denaturation (Tm) of aFGF by circular dichroism; assay type: biochemical; settings: for Tm of aFGF (maximum Tm induced by ligand), circular dichroism: PBS pH 7.2, excess ligand (1-3X by weight; 120 mM sodium sulfate, 10 mM tetrapolyphosphate); for Tm of aFGF, circular dichroism: 3X ligand by weight
T1 construct: The recombinant derived, 140 amino add form is the preferred form of aFGF; N-terminal methionine (MetHaFGF); made in house; host or cells: microbial cells (preferred embodiment)
T1 sequence (P05230 16-155 limits assumed): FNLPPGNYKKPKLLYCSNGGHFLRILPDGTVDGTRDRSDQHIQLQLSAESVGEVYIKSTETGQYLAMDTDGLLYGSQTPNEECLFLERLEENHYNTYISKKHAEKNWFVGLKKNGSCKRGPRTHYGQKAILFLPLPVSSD

acidic FGF (aFGF) = acidic FGF (aFGF) (Homo sapiens, UniProt P05230); assay: biochemical; settings: for stabilization of aFGF against heat-induced aggregation: 0.5X and 10X ligand, FIGS. 6-8; for Approx. Molar Ratio (ligand to aFGF at 50% inhibition of aggregation): Table 1
Sequence of acidic FGF (aFGF) (P05230 16-155 limits assumed): as above
From the text: Stabilization of aFGF can be determined by several independent methods including turbidity measurements, spectroscopic techniques, maintenance of protein mass, mitogenic activity and copper catalyzed oxidation. Since acidic fibroblast growth factor is unstable at physiological temperatures (undergoing large structural changes, including aggregation, which results in a loss of mitogenic and wound healing activity), human aFGF stability can be monitored by evaluating the turbidity of the pharmaceutical composition by following the kinetics of temperature induced aggregation of unfolded protein.
The kinetics of protein aggregation (stabilization) are monitored by the degree of light scattering at about OD350 nm using a Perkin Elmer Lambda 6 UV-visible spectrophotometer equipped with a six-cuvette holder. Temperature is controlled by circulating a water/ethylene glycol solution through the cell holder. About 0.9 ml of a PBS solution (6 mM sodium phosphate, 120 mM NaCl, pH 7.2) was placed into a cuvette and incubated at the appropriate temperature within the spectrophotometer. Once equilibrated, 100 μl of a 1 mg/ml aFGF solution containing the appropriate amount of ligand (stabilizer) is added to the cuvette and mixed manually by inversion. The change in optical density at 350 nm over time is continuously monitored. A dead time of 30s was present due to the mixing of the six samples in each experiment.
To examine the interactions between aFGF and heparin, a spectrophotometric turbidity assay was developed. This technique monitors the structural stability of aFGF by following the kinetics of temperature induced aggregation of unfolded protein by measurement of the degree of light scattering (turbidity) at 350 nm. The kinetics of protein aggregation were monitored by the degree of light scattering at 350 nm using a Perkin Elmer Lambda 6 UV-visible spectrophotometer equipped with a six-cuvette holder. Temperature was controlled by circulating a water/ethylene glycol solution through the cell holder. A PBS solution, 0.9 ml, (6 mM phosphate, 120 mM NaCl pH 7.2) was placed into a cuvette and incubated at the appropriate temperature within the spectrophotometer. Once equilibrated, 100 μl of a 1 mg/ml aFGF solution containing the appropriate amount of ligand was added to the cuvette and mixed manually by inversion. The change in optical density at 350 nm over time was continuously monitored. A dead time of 30s was present due to the mixing of the six samples in each experiment.
Samples contained 100 μg/ml aFGF in a PBS buffer at pH 7.2 with the indicated ratio of heparin to aFGF (wt:wt).
Samples contained 100 μg/ml protein in a PBS buffer, pH 7.2 with (a) no heparin, (b) 1.5 μg/ml, (c) 3 μg/ml, (d) 5 μg/ml, (e) 10 μg/ml and (f) 50 μg/ml heparin. Only representative data points are shown for clarity. […] Using the initial linear portion of the slope of turbidity vs. time plots as a measure of the rate of aggregation, the effect of polyanion concentration can be quantitatively characterized. The Y-axis represents the maximum rate of turbidity formation (ΔOD350 nm/min) normalized to sample (a) containing no heparin. The curve is drawn through data points for clarity only. The IC50 is the concentration of ligand at which the rate of aggregation is 50% of the control sample.

[1] = 40° C., 100 μg/ml aFGF, PBS pH 7.2

Molecule | Tm of aFGF (maximum Tm induced by ligand), circular dichroism (aFGF) | number of ligand molecules per aFGF (molar ratio) required for stabilization (acidic FGF (aFGF); 40° C.) | IC50: concentration of ligand at which the rate of heat-induced aggregation of aFGF is 50% of the sample without ligand (acidic FGF (aFGF); [1]) | stabilization of aFGF against heat-induced aggregation (acidic FGF (aFGF); 40° C.) | Approx. Molar Ratio (ligand to aFGF at 50% inhibition of aggregation) (acidic FGF (aFGF); 40° C.) | IC50 (acidic FGF (aFGF); 40° C., 100 μg/ml aFGF, PBS pH 7.2, read-out: IC50: concentration of ligand at which the rate of heat-induced aggregation of aFGF is 50% of the sample without ligand (converted)) | Tm of aFGF, circular dichroism (aFGF) | heparin concentration down to which no detectable aggregation of aFGF was observed (acidic FGF (aFGF); 40° C., 100 μg/ml aFGF (1:10 weight ratio of heparin to aFGF)) | aggregation of aFGF (acidic FGF (aFGF); 55° C., 25 minutes, 3-fold excess heparin by weight)
dextran sulfate | 62 °C | substantially below one | 3 µg/mL | dramatically stabilize aFGF from heat-induced aggregation | 0.06 |  |  |  | 
O=P(O)(O)O[C@H]1[C@H](OP(=O)(O)O)[C@@H](OP(=O)(O)O)[C@H](OP(=O)(O)O)[C@@H](OP(=O)(O)O)[C@H]1OP(=O)(O)O [Inositol hexaphosphate, inositol hexaphosphate] | 70 °C |  |  |  |  |  |  |  | 
O=S(=O)(O)OC1C(OS(=O)(=O)O)C(OS(=O)(=O)O)C(OS(=O)(=O)O)C(OS(=O)(=O)O)C1OS(=O)(=O)O (stereo not shown) [Inositol hexasulfate, inositol hexasulfate] | 66 °C | only one or a few ligands per aFGF molecule |  | stabilize aFGF against heat-induced aggregation | 0.6 | 4.54 µM |  |  | 
heparin [reference compound] | 64 °C | substantially below one | 2 µg/mL |  | 0.03 |  | 64 °C | approximately 10 μg/ml | no aggregation observed after 25 minutes at 55 °C
O=P(O)(O)OP(=O)(O)OP(=O)(O)OP(=O)(O)O [Tetrapolyphosphate] | 66 °C | only one or a few ligands per aFGF molecule | 3 µg/mL |  | 1.2 |  |  |  | 
sulfated β-cyclodextrin | 65 °C |  |  |  |  |  | 65 °C |  | 
low molecular weight heparin [Low MW heparin, reference compound] | 66 °C |  | 3 µg/mL | dramatically stabilize aFGF from heat-induced aggregation | 0.10 |  |  |  | 

Source: patent US5348941A, “Stabilizers for fibroblast growth factors” (Merck & Co., Inc., priority 1992, dated 1994)
